Measurements: patent US6531496B1 (Bayer Aktiengesellschaft, priority 1999, dated 2003)
Values after ≈ are worked out from the molar mass of the structure shown.

Key:
[1] = logP by HPLC (EEC Directive 79/831 Annex V. A8, gradient method); format: physicochemical
[2] = tested on: Plasmopara viticola; test: Plasmopara test (grapevine)/protective; format: in vivo; settings: 144 h, protective, evaluated 6 days after inoculation, read-out: Efficacy in %
Procedure: Plasmopara Test (Grapevine)/Protective Solvent: 47 parts by weight of acetone Emulsifier: 3 parts by weight of alkylaryl polyglycol ether To prepare a suitable active compound preparation, 1 part by weight of active compound is mixed with the stated amounts of solvent and emulsifier, and the concentrate is diluted with water to the desired concentration. To test for protective activity, young plants are sprayed with the active compound preparation at the application rate stated. After the spray coating has dried on, the plants are inoculated with an aqueous spore suspension of Plasmopara viticola and then remain for 1 day in an incubation cabinet at approx. 20° C. and a relative atmospheric humidity of 100%. […] The plants are then moistened and placed in an incubation cabinet for 1 day.

[3] = tested on: Venturia inaequalis; test: Venturia test (apple)/protective; format: in vivo; settings: 288 h, protective, evaluated 12 days after inoculation, read-out: Efficacy in %
Procedure: Venturia Test (Apple)/Protective Solvent: 47 parts by weight of acetone Emulsifier: 3 parts by weight of alkylaryl polyglycol ether To prepare a suitable active compound preparation, 1 part by weight of active compound is mixed with the stated amounts of solvent and emulsifier, and the concentrate is diluted with water to the desired concentration. To test for protective activity, young plants are sprayed with the active compound preparation at the application rate stated. After the spray coating has dried on, the plants are inoculated with an aqueous conidial suspension of the apple scab pathogen Venturia inaequalis and then remain for 1 day in an incubation cabinet at approx. 20° C. and 100% relative atmospheric humidity.

[4] = tested on: Penicillium brevicaule; test: Minimum inhibitory concentration on malt extract agar; format: cell-based; settings: 2 weeks at 28° C.; for MIC: Penicillium, 336 h, read-out: Minimum inhibitory concentrations Penicillium brevicaule
Procedure: (§1) To confirm the activity against fungi (Penicillium brevicaule, Chaetomium globosum, Aspergillus Niger), the minimum inhibitory concentrations (MICs) of agents according to the invention are determined:
(§2) Active compounds according to the invention are added in concentrations of from 0.1 mg/l to 5 000 mg/l to an agar prepared using malt extract. […] The MIC is the lowest concentration of active compound at which no growth whatsoever by the microbial species used occurs; it is indicated in the table which follows.

[5] = tested on: Chaetomium globosum; test: as above; format: cell-based; settings: 2 weeks at 28° C.
Procedure: as §1, §2

[6] = tested on: Aspergillus Niger; test: as above; format: cell-based; settings: 2 weeks at 28° C.
Procedure: as §1, §2

[7] = gradient of acetonitrile/0.1% aqueous phosphoric acid, HPLC, gradient method, acetonitrile/0.1% aqueous phosphoric acid, Table 1
[8] = Table 3, intermediates of formula (II-a)
[9] = HPLC, gradient method, acetonitrile/0.1% aqueous phosphoric acid, Table 1

## O=S1(=O)CSC(Oc2cccc(Br)c2)=N1 [Example 119]
[1]; [7]
  chromatographic logP: 2.47
[2]
  pest or weed control at 250 g/ha: ≥ 90%

## O=[N+]([O-])c1ccccc1OC1=NS(=O)(=O)CS1 [Example 128]
[1]; [7]
  chromatographic logP: 1.84
[2]
  pest or weed control at 250 g/ha: ≥ 90%

## C/C(=N/OC(C)(C)C)c1cccc(OC2=NS(=O)(=O)CS2)c1 [Example 28]
[1]; [7]
  chromatographic logP: 3.94
[2]
  pest or weed control at 250 g/ha: ≥ 90%
[3]
  pest or weed control at 250 g/ha: ≥ 90%

## Cc1cc(Cl)cc(OC2=NS(=O)(=O)CS2)c1 [Example 1, 3-(3-chloro-5-methylphenoxy)-1λ^6,4,2-dithiazole-1,1(5H)-dione]
[4]
  MIC: 10 to 100 µg/mL (≈ 36 to 360 µM)
[2]
  pest or weed control at 250 g/ha: ≥ 90%
[3]
  pest or weed control at 250 g/ha: ≥ 90%

## Cc1ccc(OC2=NS(=O)(=O)CS2)cc1 [Example 105]
[2]
  pest or weed control at 250 g/ha: ≥ 90%
[3]
  pest or weed control at 250 g/ha: ≥ 90%

## Cc1cccc(OC2=NS(=O)(=O)CS2)c1 [Example 106]
[2]
  pest or weed control at 250 g/ha: ≥ 90%
[3]
  pest or weed control at 250 g/ha: ≥ 90%

## O=C(c1ccccc1)c1cccc(OC2=NS(=O)(=O)CS2)c1 [Example 27]
[1]; [7]
  chromatographic logP: 2.66
[2]
  pest or weed control at 250 g/ha: ≥ 90%
[3]
  pest or weed control at 250 g/ha: ≥ 90%

## O=S1(=O)CSC(Oc2ccccc2F)=N1 [Example 110]
[1]; [7]
  chromatographic logP: 2.02
[3]
  pest or weed control at 250 g/ha: ≥ 90%

## CC(C)(C)c1ccc(OC2=NS(=O)(=O)CS2)cc1 [Example 98]
[2]
  pest or weed control at 250 g/ha: ≥ 90%

## O=S1(=O)CSC(Oc2ccc3oc(=S)sc3c2)=N1 [Example 141]
[1]; Table 2
  chromatographic logP: 2.64
[2]
  pest or weed control at 250 g/ha: ≥ 90%
[3]
  pest or weed control at 250 g/ha: ≥ 90%

## O=S1(=O)CSC(Oc2ccccc2Br)=N1 [Example 108]
[1]; [7]
  chromatographic logP: 2.3
[3]
  pest or weed control at 250 g/ha: ≥ 90%

## O=S1(=O)CSC(Oc2cccc(Cl)c2Cl)=N1 [Example 101]
[2]
  pest or weed control at 250 g/ha: ≥ 90%
[3]
  pest or weed control at 250 g/ha: ≥ 90%

## O=S1(=O)CSC(Oc2ccc(Cl)cc2)=N1 [Example 93]
[5]
  Minimum inhibitory concentrations Chaetomium globosum: 50 ppm
[6]
  Minimum inhibitory concentrations Aspergillus Niger: 100 ppm
[4]
  Minimum inhibitory concentrations Penicillium brevicaule: 20 ppm
  MIC: 10 to 100 µg/mL (≈ 37.9 to 379 µM)

## C/C(=N/OC(C)(C)C)c1ccc(OC2=NS(=O)(=O)CS2)cc1 [Example 24]
[1]; [7]
  chromatographic logP: 3.98
[3]
  pest or weed control at 250 g/ha: ≥ 90%

## O=S1(=O)CSC(Oc2ccccc2)=N1 [Example 1]
[5]; Chaetomium globosum, 336 h, read-out: Minimum inhibitory concentrations Chaetomium globosum
  MIC: 100 µg/mL (≈ 436 µM)
[6]; Aspergillus niger, 336 h, read-out: Minimum inhibitory concentrations Aspergillus Niger
  MIC: 100 µg/mL (≈ 436 µM)
[4]
  MIC: 100 µg/mL (≈ 436 µM)

## O=S1(=O)CSC(Oc2ccccc2Cl)=N1 [Example 95]
[2]
  pest or weed control at 250 g/ha: ≥ 90%
[3]
  pest or weed control at 250 g/ha: ≥ 90%

## O=S1(=O)CSC(Oc2cccc(F)c2)=N1 [Example 111]
[1]; [7]
  chromatographic logP: 2.05
[3]
  pest or weed control at 250 g/ha: ≥ 90%

## O=S1(=O)CSC(Oc2ccc(Cl)cc2Cc2ccccc2)=N1 [Example 99]
[2]
  pest or weed control at 250 g/ha: ≥ 90%

## Cc1ccc(Cl)c(OC2=NS(=O)(=O)CS2)c1 [Example 115]
[1]; [7]
  chromatographic logP: 2.62
[3]
  pest or weed control at 250 g/ha: ≥ 90%

## CC(=O)c1ccc(OC2=NS(=O)(=O)CS2)cc1 [Example 21]
[1]; [7]
  chromatographic logP: 1.69
[2]
  pest or weed control at 250 g/ha: ≥ 90%

## CC(C)(C)c1cccc(OC2=NS(=O)(=O)CS2)c1 [Example 114]
[1]; [7]
  chromatographic logP: 3.27
[3]
  pest or weed control at 250 g/ha: ≥ 90%

## CC1(c2ccccc2)CS(=O)(=O)N=C(Cl)S1 (stereo not shown) [II-a-2]
[1]; [8]
  chromatographic logP: 2.75

## Cc1cc(OC2=NS(=O)(=O)CS2)ccc1SC(F)(F)F [Example 52]
[1]; [9]
  logP: 3.39

## CN(C)N=Cc1ccc(OC2=NS(=O)(=O)CS2)cc1 [Example 61]
[1]; [9]
  logP: 2.16

## C=CCO/N=C(/c1ccccc1)c1cccc(OC2=NS(=O)(=O)CS2)c1 [Example 42]
[1]; [7]
  chromatographic logP: 3.72
[2]
  pest or weed control at 250 g/ha: ≥ 90%

## O=S1(=O)CSC(Oc2cccc(C(=NOCc3ccccc3)c3ccccc3)c2)=N1 [Example 44]
[1]; [9]
  logP: 4.15

## O=S1(=O)CSC(Oc2ccc(F)cc2)=N1 [Example 112]
[1]; [9]
  logP: 2.04

## CC(=NOCc1ccccc1)c1ccc(OC2=NS(=O)(=O)CS2)c(C)c1 [Example 18]
[1]; [9]
  logP: 3.92

## Cc1ccc(OC2=NS(=O)(=O)CS2)c(C)c1 [Example 127]
[1]; [7]
  chromatographic logP: 2.65

## CON=C(C(=O)NCc1ccccc1)c1ccccc1OC1=NS(=O)(=O)CS1 [Example 9]
[1]; [9]
  logP: 2.13

## O=S1(=O)CSC(Oc2ccc(N=Nc3ccccc3)cc2)=N1 [Example 47]
[1]; [9]
  logP: 3.47

## O=S1(=O)CSC(Oc2c(Cl)cccc2Cl)=N1 [Example 102]
[2]
  pest or weed control at 250 g/ha: ≥ 90%

## O=S1(=O)CSC(Oc2ccc3[nH]ccc3c2)=N1 [Example 155]
[1]; Table 2
  chromatographic logP: 1.86

## Cc1cc(S(=O)(=O)c2ccccc2)cc(Cl)c1OC1=NS(=O)(=O)CS1 [Example 120]
[1]; [9]
  logP: 2.83

## O=C(c1ccc(Cl)cc1)c1ccc(OC2=NS(=O)(=O)CS2)cc1 [Example 86]
[1]; [9]
  logP: 3.17

## Cc1c(C(=O)O)c2cc(OC3=NS(=O)(=O)CS3)ccc2n1C [Example 144]
[1]; Table 2
  chromatographic logP: 2.65

## O=c1c2ccccc2oc2cc(OC3=NS(=O)(=O)CS3)ccc12 [Example 152]
[1]; Table 2
  chromatographic logP: 2.52

## CO/N=C(/C)c1cccc(OC2=NS(=O)(=O)CS2)c1 [Example 26]
[1]; [7]
  chromatographic logP: 2.65

## CSc1nnc(C(C)(C)C)c(=O)n1N=Cc1cccc(OC2=NS(=O)(=O)CS2)c1 [Example 69]
[1]; [9]
  logP: 3.43

## CCN(CC)C(=O)c1ccc(OC2=NS(=O)(=O)CS2)c(NC)c1 [Example 64]
[1]; [9]
  logP: 2

## COC(=O)Nc1ccc(C=Cc2cccc(OC3=NS(=O)(=O)CS3)c2)c(NC(=O)OC)c1 [Example 49]
[1]; [9]
  logP: 2.43

## O=[N+]([O-])c1ccc(C=Cc2cccc(OC3=NS(=O)(=O)CS3)c2)c([N+](=O)[O-])c1 (mixture of isomers) [Example 81]
[1]; [9]
  logP: 3.22

## O=S1(=O)CSC(Oc2cccc(OC(F)(F)F)c2)=N1 [Example 134]
[1]; [9]
  logP: 2.35

## O=S1(=O)CSC(Oc2cccc(CO)c2)=N1 [Example 46]
[1]; [9]
  logP: 1.23

## O=S1(=O)CSC(Oc2ccc(S(=O)(=O)c3ccc(Cl)cc3)cc2)=N1 [Example 83]
[1]; [9]
  logP: 2.72

## O=S1(=O)CC(c2ccccc2)SC(Cl)=N1 (stereo not shown) [II-a-1]
[1]; [8]
  chromatographic logP: 2.63

## O=S1(=O)CSC(Oc2ccc(Cl)cc2Cl)=N1 [Example 96]
[2]
  pest or weed control at 250 g/ha: ≥ 90%
[3]
  pest or weed control at 250 g/ha: ≥ 90%

## CC(C)Oc1ccccc1OC1=NS(=O)(=O)CS1 [Example 129]
[1]; [9]
  logP: 2.7

## CO/N=C(/c1ccccc1)c1cccc(OC2=NS(=O)(=O)CS2)c1 [Example 41]
[1]; [7]
  chromatographic logP: 3.28
[2]
  pest or weed control at 250 g/ha: ≥ 90%

## COC(=O)c1c(-c2ccc(-c3ccccc3)cc2)oc2ccc(OC3=NS(=O)(=O)CS3)cc12 [Example 146]
[1]; Table 2
  chromatographic logP: 3.43

## O=S1(=O)CSC(Oc2cccc(C(F)(F)F)c2)=N1 [Example 113]
[1]; [9]
  logP: 2.62

## COC(=O)/C(C#N)=C1/Oc2ccc(OC3=NS(=O)(=O)CS3)cc2S1 [Example 151]
[1]; Table 2
  chromatographic logP: 2.31

## O=S1(=O)CSC(Oc2ccccc2OC(F)(F)F)=N1 [Example 133]
[1]; [7]
  chromatographic logP: 2.63
[3]
  pest or weed control at 250 g/ha: ≥ 90%

## O=S1(=O)CSC(Oc2ccc3c(c2)OCO3)=N1 [Example 142]
[1]; Table 2
  chromatographic logP: 1.9

## O=C(C=Cc1ccccc1)c1ccc(OC2=NS(=O)(=O)CS2)cc1 [Example 67]
[1]; [9]
  logP: 3.06
